Test results: patent publication US20230002359A1, “PESTICIDALLY ACTIVE FUSED BICYCLIC HETEROAROMATIC COMPOUNDS” (priority 2019, published 2023)

Tests used:
Assay type in all cases: in vivo
[1] = system: Diabrotica Balteata (Corn Root Worm); assay: Example B1: Diabrotica balteata (corn root worm), maize sprouts sprayed, L2 larvae; conditions: 96 h, application rate of 200 ppm, 4 days after infestation, L2 larvae, read-out: control in at least one of the two categories (mortality or growth inhibition)
How it was run: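 Larvae at L2 stage, 6 to 10 per well, feed on dried, spray-treated maize sprouts set on agar. Evaluation after 4 days compares mortality and growth inhibition with untreated samples.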

[2] = system: Chilo suppressalis (Striped Rice Stemborer); assay: Example B3: Chilo suppressalis (striped rice stemborer), artificial diet, L2 larvae; conditions: 144 h, application rate of 200 ppm, 6 days after infestation, L2 larvae, read-out: control in at least one of the three categories (mortality, anti-feedant effect, or growth inhibition)
How it was run: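 Scoring covers mortality, anti-feedant effect and growth inhibition at 6 days post-infestation, relative to untreated diet, with activity defined as at least one category above untreated. Test solutions were aqueous, made from 10'000 ppm DMSO stocks, and applied to artificial diet before drying and infestation with L2 larvae.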

[3] = system: Myzus persicae (Green Peach Aphid); assay: Example B6: Myzus persicae (green peach aphid) intrinsic activity, sucrose solution; conditions: 120 h, test rate of 12 ppm, 5 days after infestation, intrinsic activity, read-out: mortality
Description: Test compounds prepared from 10′000 ppm DMSO stock solutions were applied by pipette into 24-well microtiter plates and mixed with sucrose solution. The plates were closed with a stretched Parafilm. A plastic stencil with 24 holes was placed onto the plate and infested pea seedlings were placed directly on the Parafilm. The infested plate was closed with a gel blotting paper and another plastic stencil and then turned upside down. The samples were assessed for mortality 5 days after infestation.

[4] = system: Plutella xylostella (Diamond Back Moth); assay: Example B4: Plutella xylostella (diamond back moth), artificial diet, eggs, 24-well; conditions: 192 h, application rate of 200 ppm, 8 days after infestation, eggs, read-out: control in at least one of the two categories (mortality or growth inhibition)
Description: 24-well microtiter plates with artificial diet were treated with aqueous test solutions prepared from 10′000 ppm DMSO stock solutions by pipetting. After drying, Plutella eggs were pipetted through a plastic stencil onto a gel blotting paper and the plate was closed with it. The samples were assessed for mortality and growth inhibition in comparison to untreated samples 8 days after infestation.

[5] = system: Spodoptera littoralis (Egyptian Cotton Leaf Worm); assay: Example B7: Spodoptera littoralis (Egyptian cotton leaf worm), cotton leaf discs sprayed, L1 larvae; conditions: foliar, 72 h, application rate of 200 ppm, 3 days after infestation, L1 larvae, read-out: control in at least one of the three categories (mortality, anti-feedant effect, or growth inhibition)
How it was run: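 Read-out: mortality, feeding deterrence and growth inhibition, assessed 3 days after infestation relative to untreated samples. Sprayed, dried cotton leaf discs on agar each received five first-instar (L1) larvae; sprays were aqueous solutions prepared from 10′000 ppm DMSO stocks.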

C[C@@H](c1ncnn1-c1ncccn1)N(C)c1ccnc2c(C(F)(F)F)cc(C(F)(F)F)cc12 [P.88, N-methyl-N-[(1S)-1-(2-pyrimidin-2-yl-1,2,4-triazol-3-yl)ethyl]-6,8-bis(trifluoromethyl)quino-lin-4-amine]
≥ 80%: percent control (mortality or growth inhibition) at 200 ppm [1] | percent control (mortality, anti-feedant effect or growth inhibition) at 200 ppm [2] | mortality at 12 ppm [3] | percent control (mortality or growth inhibition) at 200 ppm [4]

CC(Nc1ncnc2c(Br)cc(Br)cc12)c1ncnn1-c1ncccn1 (stereo not drawn) [P.29, 6,8-dibromo-N-[1-(2-pyrimidin-2-yl-1,2,4-triazol-3-yl)ethyl]quinazolin-4-amine]
≥ 80%: percent control (mortality or growth inhibition) at 200 ppm [1] | percent control (mortality, anti-feedant effect or growth inhibition) at 200 ppm [5] | percent control (mortality, anti-feedant effect or growth inhibition) at 200 ppm [2] | mortality at 12 ppm [3] | percent control (mortality or growth inhibition) at 200 ppm [4]

CC(c1nccnc1-c1ncccn1)N(C)c1ncnc2c(Br)cc(Cl)cc12 (stereo not drawn) [P.182, 8-bromo-6-chloro-N-methyl-N-[1-(3-pyrimidin-2-ylpyrazin-2-yl)ethyl]quinazolin-4-amine]
≥ 80%: percent control (mortality or growth inhibition) at 200 ppm [1] | percent control (mortality, anti-feedant effect or growth inhibition) at 200 ppm [5] | mortality at 12 ppm [3] | percent control (mortality or growth inhibition) at 200 ppm [4]

CC(Nc1ncnc2c(OC(F)F)cc(Br)cc12)c1ncnn1-c1ncccn1 (stereo not drawn) [P.243, 6-bromo-8-(difluoromethoxy)-N-[1-(2-pyrimidin-2-yl-1,2,4-triazol-3-yl)ethyl]quinazolin-4-amine]
≥ 80%: percent control (mortality or growth inhibition) at 200 ppm [1] | percent control (mortality, anti-feedant effect or growth inhibition) at 200 ppm [5] | percent control (mortality, anti-feedant effect or growth inhibition) at 200 ppm [2] | mortality at 12 ppm [3] | percent control (mortality or growth inhibition) at 200 ppm [4]

C[C@H](Nc1ncnc2c(C(F)(F)F)cc(Cl)cc12)c1ncnn1-c1ccc(C#N)cn1 [P.22, 6-[5-[(1S)-1-[[6-chloro-8-(trifluoromethyl)quinazolin-4-yl]amino]ethyl]-1,2,4-triazol-1-yl]pyridine-3-carbonitrile]
≥ 80%: percent control (mortality or growth inhibition) at 200 ppm [1] | percent control (mortality, anti-feedant effect or growth inhibition) at 200 ppm [5] | percent control (mortality, anti-feedant effect or growth inhibition) at 200 ppm [2] | mortality at 12 ppm [3] | percent control (mortality or growth inhibition) at 200 ppm [4]

C[C@H](Nc1ncnc2c(C(F)(F)F)cc(I)cc12)c1nccnc1-c1ccc(C#N)cn1 [P.162, 6-[3-[(1S)-1-[[6-iodo-8-(trifluoromethyl)quinazolin-4-yl]amino]ethyl]pyrazin-2-yl]pyridine-3-carbonitrile]
≥ 80%: percent control (mortality or growth inhibition) at 200 ppm [1] | percent control (mortality, anti-feedant effect or growth inhibition) at 200 ppm [5] | percent control (mortality, anti-feedant effect or growth inhibition) at 200 ppm [2] | mortality at 12 ppm [3] | percent control (mortality or growth inhibition) at 200 ppm [4]

C[C@@H](c1ncnn1-c1ccc(C#N)cn1)N(C)c1ncnc2c(C(F)(F)F)cc(C3CC3)cc12 [P.177, 6-[5-[(1S)-1-[[6-cyclopropyl-8-(trifluoromethyl)quinazolin-4-yl]-methyl-amino]ethyl]-1,2,4-triazol-1-yl]pyridine-3-carbonitrile]
≥ 80%: percent control (mortality or growth inhibition) at 200 ppm [1] | percent control (mortality, anti-feedant effect or growth inhibition) at 200 ppm [5] | percent control (mortality, anti-feedant effect or growth inhibition) at 200 ppm [2] | mortality at 12 ppm [3] | percent control (mortality or growth inhibition) at 200 ppm [4]

C[C@@H](c1ncnn1-c1ncccn1)N(C)c1ncnc2c(C(F)(F)F)cc(Br)cc12 [P.208, 6-bromo-N-methyl-N-[(1S)-1-(2-pyrimidin-2-yl-1,2,4-triazol-3-yl)ethyl]-8-(trifluoromethyl)quinazolin-4-amine]
≥ 80%: percent control (mortality or growth inhibition) at 200 ppm [1] | percent control (mortality, anti-feedant effect or growth inhibition) at 200 ppm [5] | percent control (mortality, anti-feedant effect or growth inhibition) at 200 ppm [2] | mortality at 12 ppm [3] | percent control (mortality or growth inhibition) at 200 ppm [4]

C[C@H](Nc1ncnc2c(Cl)cc(C(F)(F)F)cc12)c1ncnn1-c1ncccn1 [P.18, 8-chloro-N-[(1S)-1-(2-pyrimidin-2-yl-1,2,4-triazol-3-yl)ethyl]-6-(trifluoromethyl)quinazolin-4-amine]
≥ 80%: percent control (mortality or growth inhibition) at 200 ppm [1] | percent control (mortality, anti-feedant effect or growth inhibition) at 200 ppm [5] | percent control (mortality, anti-feedant effect or growth inhibition) at 200 ppm [2] | mortality at 12 ppm [3] | percent control (mortality or growth inhibition) at 200 ppm [4]

CC(c1ncnn1-c1ccc(OC(F)F)cn1)N(C)c1ncnc2c(C(F)(F)F)cc(Br)cc12 (stereo not drawn) [P.194, 6-bromo-N-[1-[2-[5-(difluoromethoxy)-2-pyridyl]-1,2,4-triazol-3-yl]ethyl]-N-methyl-8-(trifluoromethyl)quinazolin-4-amine]
≥ 80%: percent control (mortality or growth inhibition) at 200 ppm [1] | percent control (mortality, anti-feedant effect or growth inhibition) at 200 ppm [5] | percent control (mortality, anti-feedant effect or growth inhibition) at 200 ppm [2] | mortality at 12 ppm [3] | percent control (mortality or growth inhibition) at 200 ppm [4]

CC(Nc1ncnc2c(Br)cc(OC(F)(F)F)cc12)c1nccnc1-c1ncccn1 (stereo not drawn) [P.12, 8-bromo-N-[1-(3-pyrimidin-2-ylpyrazin-2-yl)ethyl]-6-(trifluoromethoxy)quina-zolin-4-amine]
≥ 80%: percent control (mortality or growth inhibition) at 200 ppm [1] | percent control (mortality, anti-feedant effect or growth inhibition) at 200 ppm [5] | percent control (mortality, anti-feedant effect or growth inhibition) at 200 ppm [2] | mortality at 12 ppm [3] | percent control (mortality or growth inhibition) at 200 ppm [4]

C[C@@H](c1ncnn1-c1ncccn1)N(C)c1ncnc2c(Cl)cc(OC(F)F)cc12 [P.91, 8-chloro-6-(difluoromethoxy)-N-methyl-N-[(1S)-1-(2-pyrimidin-2-yl-1,2,4-triazol-3-yl)ethyl]quinazolin-4-amine]
≥ 80%: percent control (mortality or growth inhibition) at 200 ppm [1] | percent control (mortality, anti-feedant effect or growth inhibition) at 200 ppm [2] | mortality at 12 ppm [3] | percent control (mortality or growth inhibition) at 200 ppm [4]

C[C@H](Nc1ccnc2c(C(F)(F)F)cc(Br)cc12)c1ncnn1-c1ccc(C#N)cn1 [P.252, 6-[5-[(1S)-1-[[6-bromo-8-(trifluoromethyl)-4-quinolyl]amino]ethyl]-1,2,4-triazol-1-yl]pyridine-3-carbonitrile]
≥ 80%: percent control (mortality or growth inhibition) at 200 ppm [1] | percent control (mortality, anti-feedant effect or growth inhibition) at 200 ppm [5] | percent control (mortality, anti-feedant effect or growth inhibition) at 200 ppm [2] | percent control (mortality or growth inhibition) at 200 ppm [4]

CC(c1nc(Br)nn1-c1ncccn1)N(C)c1ncnc2c(C(F)(F)F)cc(C(F)(F)F)cc12 (stereo not drawn) [P.4, N-[1-(5-bromo-2-pyrimidin-2-yl-1,2,4-triazol-3-yl)ethyl]-N-methyl-6,8-bis(trifluoromethyl)quina-zolin-4-amine]
≥ 80%: percent control (mortality or growth inhibition) at 200 ppm [1] | percent control (mortality, anti-feedant effect or growth inhibition) at 200 ppm [5] | percent control (mortality, anti-feedant effect or growth inhibition) at 200 ppm [2] | percent control (mortality or growth inhibition) at 200 ppm [4]

CC(c1nccnc1-n1nccn1)N(C)c1ncnc2c(Br)cc(Cl)cc12 (stereo not drawn) [P.174, 8-bromo-6-chloro-N-methyl-N-[1-[3-(triazol-2-yl)pyrazin-2-yl]ethyl]quinazolin-4-amine]
≥ 80%: percent control (mortality or growth inhibition) at 200 ppm [1] | percent control (mortality, anti-feedant effect or growth inhibition) at 200 ppm [5] | percent control (mortality, anti-feedant effect or growth inhibition) at 200 ppm [2] | percent control (mortality or growth inhibition) at 200 ppm [4]

CC(c1nccnc1-c1ccc(C#N)cn1)N(CC1CC1)c1ncnc2c(C(F)(F)F)cc(C(F)(F)F)cc12 (stereo not drawn) [P.126, 6-[3-[1-[[6,8-bis(trifluoromethyl)quina-zolin-4-yl]-(cyclopropylmethyl)amino]ethyl]pyrazin-2-yl]pyridine-3-carbonitrile]
≥ 80%: percent control (mortality or growth inhibition) at 200 ppm [1] | percent control (mortality, anti-feedant effect or growth inhibition) at 200 ppm [5] | percent control (mortality, anti-feedant effect or growth inhibition) at 200 ppm [2] | percent control (mortality or growth inhibition) at 200 ppm [4]

CC(c1nc(Br)nn1-c1ncccn1)N(C)c1ncnc2c(C(F)(F)F)cc(Cl)cc12 (stereo not drawn) [P.205, N-[1-(5-bromo-2-pyrimidin-2-yl-1,2,4-triazol-3-yl)ethyl]-6-chloro-N-methyl-8-(trifluoromethyl)quinazolin-4-amine]
≥ 80%: percent control (mortality or growth inhibition) at 200 ppm [1] | percent control (mortality, anti-feedant effect or growth inhibition) at 200 ppm [5] | percent control (mortality, anti-feedant effect or growth inhibition) at 200 ppm [2] | percent control (mortality or growth inhibition) at 200 ppm [4]

CC(Nc1ncnc2c(C(F)(F)F)cc(C(F)(F)F)cc12)c1nccnc1-c1ccc(C#N)cn1 (stereo not drawn) [P.115, 6-[3-[1-[[6,8-bis(trifluoromethyl)quina-zolin-4-yl]amino]ethyl]pyrazin-2-yl]pyridine-3-carbonitrile]
≥ 80%: percent control (mortality or growth inhibition) at 200 ppm [1] | percent control (mortality, anti-feedant effect or growth inhibition) at 200 ppm [5] | percent control (mortality, anti-feedant effect or growth inhibition) at 200 ppm [2] | percent control (mortality or growth inhibition) at 200 ppm [4]
